Consider two compounds from US20220144879A1, “FLUORESCENT PROBE FOR DETECTING CANCER” (The University of Tokyo, priority 2019, published 2022).

In experiment [1] the test system is intact glycosidase activities in normal breast, IDC (breast cancer), and FA (benign tumor) tissues. As to the kind of experiment: Screening of glycosidase-reactive fluorescent probes for detecting breast cancer and benignancy (fluorescence increase in clinical mammary gland specimens). Also on record: species or system human. Conditions: probe 50 μM in PBS, increase from 1 minute to 30 minutes after addition, 540 nm. Here is the method: Using the 12 types of glycosidase-reactive fluorescent probes synthesized above (refer to FIG. 1), screening for the detection of breast cancer and benignancy was performed in the following procedure.
200 μL of a PBS solution of each fluorescent probe at a concentration of 50 μM was added to each well in which a clinical mammary gland specimen was placed, and fluorescence images at 1, 3, 5, 10, 20, and 30 minutes were acquired at 540 nm using a Maestro in vivo imaging system (PerkinElmer Inc.). Each fluorescence intensity value was quantified and compared by taking Regions Of Interest (ROIs) on Maestro software. Ex/Em=465−30 nm/515 nm long-pass was used as the filter setting.
The increase in fluorescence indicates increase after the lapse of 1 minute to 30 minutes since the addition of the fluorescent probe. Each dot represents, from left to right, increase in fluorescence in normal breast, IDC, DCIS, and FA tissues.

Experiment [2] concerns breast cancer and benign tumor tissues (clinical mammary gland specimen). The experiment can be described thus: Two-color imaging with HMRef-α-D-Man and GGT probe in combination (FIG. 9). Also on record: species or system human. Conditions: 50 μM each probe; 30 minutes after administration of both probes. Here is the method: Two-color imaging was performed under the following conditions using the glycosidase-reactive fluorescent probe 5 (HMRef-α-D-Man) (concentration: 50 μM) and a GGT probe gGlu-2-OMeSiR600 (concentration: 50 μM) in combination.
200 μL of a PBS solution of the fluorescent probes at the above concentrations was added to each well in which a clinical mammary gland specimen was placed, and fluorescence images at 1, 3, 5, 10, 20, and 30 minutes were acquired at 540 nm and 640 nm using the Maestro in vivo imaging system (PerkinElmer Inc.). Each fluorescence intensity value was quantified and compared by taking Regions Of Interest (ROIs) on Maestro software. For the glycosidase-reactive fluorescent probe 5, Ex/Em=465-30 nm/515 nm long-pass was used as the filter setting. For the GGT probe, Ex/Em=570-40 nm/610 nm long-pass was used.
The exposure time (in milliseconds) of the fluorescence image is indicated at the bottom of each image.

In the case of `COc1ccccc1C1=C2C=CC(=N)C=C2[Si](C)(C)c2cc(NC(=O)CC[C@H](N)C(=O)O)ccc21` [compound 7], the increase in fluorescence result in experiment [1] is “increase in fluorescence in both the breast cancer and FA (benign tumor) tissues”.

For the compound `COc1ccccc1C1=C2C=CC(=N)C=C2[Si](C)(C)c2cc(NC(=O)CC[C@H](N)C(=O)O)ccc21` [gGlu-2OME-SiR600, gGlu-2-OMeSiR600], in experiment [2], the “red fluorescence (640 nm)” value is “emitted red fluorescence in both breast cancer (malignant tumor) and the benign tumor”.
